Experimental data: patent US20200405708A1, “TREATMENT OF HEREDITARY ANGIOEDEMA” (Attune Pharmaceuticals, Inc., priority 2018, published 2020)
Where “and” joins values, the source holds several entries; their conditions need not be identical. Identical values can stand only once. Entries after “also recorded” stand apart in the source; their conditions may differ.

Columns and labels:
cytochrome P450 (CYP) = assay: cytochrome P450 inhibition; type: in vitro ADME
[1] = safety and tolerability in single-ascending-dose study, healthy male participants; type: in vivo, human; details: all 6 dose cohorts
Description: (§1) A randomized, double-blind, placebo-controlled single ascending dose and crossover food effect study
(§2) 48 healthy male participants (6 active:2 placebo in each of the 6 dose cohorts) received a single daily dose of Compound A 50 mg, 100 mg, 150 mg, 200 mg, 400 mg, or 800 mg. Subjects in the 100 mg dose cohort received first dose of Compound A under fasted condition in period 1 and after a 7-day washout, a second dose 30 minutes after the start of a high fat, high caloric meal in period 2. Serial blood draws were collected to calculate PK parameters, including area under the curve (AUC) from time zero to infinity (AUC), maximum concentration (Cmax), time of maximum concentration (Tmax), and half-life. Safety measures including treatment-emergent adverse events (TEAEs) were assessed.

plasma kallikrein [2] = target: T1, plasma kallikrein (Homo sapiens, UniProt P03952); assay: biochemical inhibition assay of plasma kallikrein
Description: (§3) Selectivity was evaluated by biochemical inhibition on plasma kallikrein relative to other serine proteases, including tissue kallikrein 5, plasmin, Factor Xa, Factor VIIa, thrombin, and tissue plasminogen activator (tPA). Potency was evaluated by biochemical inhibition and contact activation assays in human plasma. Pharmacokinetic exposure was evaluated in monkeys after a single oral administration of Compound A at 15 mg/kg. The no-observed-adverse-effect-level (NOAEL) was evaluated in 14-day non-GLP rat and monkey toxicology studies; animals were given daily doses of 100 or 300 mg/kg.
Target sequence in this assay (P03952 20-638): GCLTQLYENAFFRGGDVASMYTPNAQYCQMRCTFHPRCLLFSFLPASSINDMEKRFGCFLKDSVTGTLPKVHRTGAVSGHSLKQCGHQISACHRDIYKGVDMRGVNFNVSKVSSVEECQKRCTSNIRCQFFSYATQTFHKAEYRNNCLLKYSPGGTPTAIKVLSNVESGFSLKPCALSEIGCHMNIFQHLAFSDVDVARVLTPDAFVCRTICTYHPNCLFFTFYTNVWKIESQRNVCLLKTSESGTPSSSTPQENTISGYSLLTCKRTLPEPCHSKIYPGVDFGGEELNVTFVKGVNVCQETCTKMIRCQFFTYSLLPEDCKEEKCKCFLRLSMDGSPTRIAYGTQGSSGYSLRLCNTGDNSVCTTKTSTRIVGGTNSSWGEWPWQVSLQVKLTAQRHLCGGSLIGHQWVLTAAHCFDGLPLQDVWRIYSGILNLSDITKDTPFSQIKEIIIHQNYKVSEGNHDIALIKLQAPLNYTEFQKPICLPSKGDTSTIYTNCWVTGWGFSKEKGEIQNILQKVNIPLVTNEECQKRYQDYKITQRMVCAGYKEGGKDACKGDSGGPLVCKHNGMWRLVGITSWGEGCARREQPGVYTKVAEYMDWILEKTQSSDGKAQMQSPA

[3] = 28-day repeat dose general toxicity study in rats
[4] = metabolism and pharmacokinetics studies of single oral dosing, all species; type: in vivo
Description: (§4) FIG. 7. A table showing metabolism and pharmacokinetics results of single oral dosing of Compound A. Metabolism study was conducted with radiolabeled [^14C] Compound A.

[5] = single dose safety pharmacology in rat and monkey; type: in vivo
From the text: FIG. 9. A table showing safety pharmacology of Compound A single dose in rat and monkey.

[6] = pharmacokinetic exposure after single oral dose in monkeys; type: in vivo, monkey
Description: as §3

plasma kallikrein [7] = target: T1, plasma kallikrein; assay: contact activation assay in human plasma (ex vivo); type: biochemical; design: from tissue; host or cells: human plasma
Description: as §3
Target sequence in this assay (P03952 391-638 limits assumed): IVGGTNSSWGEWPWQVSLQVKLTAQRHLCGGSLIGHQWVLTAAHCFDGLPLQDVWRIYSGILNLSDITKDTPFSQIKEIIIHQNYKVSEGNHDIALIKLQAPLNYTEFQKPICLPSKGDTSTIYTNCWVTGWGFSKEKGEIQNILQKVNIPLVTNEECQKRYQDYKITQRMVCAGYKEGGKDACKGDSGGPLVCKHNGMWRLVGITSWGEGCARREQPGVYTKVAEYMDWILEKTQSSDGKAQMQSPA
Target sequence in this assay (P03952 20-390 partner limits assumed): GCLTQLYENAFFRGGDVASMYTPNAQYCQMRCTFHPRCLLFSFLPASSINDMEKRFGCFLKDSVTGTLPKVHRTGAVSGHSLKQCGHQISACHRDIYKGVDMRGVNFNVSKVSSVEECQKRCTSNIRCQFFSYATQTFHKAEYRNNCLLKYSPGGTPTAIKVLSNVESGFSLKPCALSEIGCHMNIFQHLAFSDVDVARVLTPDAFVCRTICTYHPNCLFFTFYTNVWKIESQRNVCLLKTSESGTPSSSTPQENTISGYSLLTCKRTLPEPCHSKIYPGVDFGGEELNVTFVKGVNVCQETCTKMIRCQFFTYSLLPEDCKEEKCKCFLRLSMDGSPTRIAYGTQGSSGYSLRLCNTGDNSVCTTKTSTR

[8] = bioavailability after single oral administration, rats; type: in vivo, rat; details: single oral 30 mg/kg
[9] = 14-day non-GLP rat and monkey toxicology studies; type: in vivo; details: daily doses of 100 or 300 mg/kg
Description: as §3

[10] = toxicology and genotoxicity studies
From the text: FIG. 10. A table showing toxicology/genotoxicity of Compound A.

[11] = recovery of radiolabeled [14C] Compound A after single oral dosing in rats; type: in vivo, rat
Description: as §4

[12] = system: tissue kallikrein 5, tissue kallikrein 7, tissue kallikrein 14, plasmin, Factor Xa, Factor VIIa, thrombin, tissue plasminogen activator (tPA); assay: selectivity by biochemical inhibition versus other serine proteases
Description: as §3

[13] = bioavailability after single oral administration, dogs; type: in vivo, dog; details: single oral 30 mg/kg
[14] = single-ascending-dose and food effect pharmacokinetics in healthy male participants; type: in vivo; design: Mean C24: unit not given here; details: human; for AUCinf, geometric mean (geometric % CV) / Cmax, geometric mean (geometric % CV): n = 6; for Mean Cmax: in ng/mL; for Mean AUCinf: in ng·h/mL
Description: as §1, §2

[15] = 28-day repeat dose general toxicity study in monkeys; type: in vivo, monkey
Description: FIG. 8. Graphic representation of 28-day repeat exposure in monkey toxicology study (NOAEL (100 mg/kg/day) at Day 28.

[16] = bioavailability after single oral administration, monkeys; type: in vivo, monkey; details: single oral 30 mg/kg
[17] = monkeys, single oral dose 15 mg/kg
[18] = 100 mg, fed (high fat, high caloric meal)

Compound: Cc1cc(N)nc(C)c1CNC(=O)c1ccnc(Cc2ccc3ncc(Cl)cc3c2)c1 [Compound A, N-((6-amino-2,4-dimethylpyridin-3-yl)methyl)-2-((3-chloroquinolin-6-yl)methyl)isonicotinamide]
- inhibition of P450 enzymes (cytochrome P450 (CYP)): does not significantly inhibit P450 enzymes
- drug-related TEAEs and serious AEs [1]: No drug-related TEAEs and no serious AEs; also recorded: no moderate or severe TEAEs, no drug-related TEAEs, no SAEs, and no dose limiting toxicity
- safety and tolerability (in words) [1]: generally safe and well tolerated
- severity of TEAEs [1]: all TEAEs were mild (grade 1)
- number of TEAEs observed ([1]; 50-800 mg single dose): 29
- IC50 (plasma kallikrein [2]): 2.7 nM
- IC90 (plasma kallikrein [2]): 16.2 nM
- fold more potent than C1-INH at inhibiting plasma kallikrein (plasma kallikrein [2]; biochemical inhibition assay): 9 fold and ~10 fold
- findings at high-dose level ([3]; 300 mg/kg/day, not considered adverse): decreases in body weight and food consumption
- NOAEL ([3]; 28-day repeat dose): 300 mg/kg/day
- bioavailability (in words) [4]: good bioavailability in all species
- mortality or adverse effects on CNS, respiratory, cardiovascular functions [5]: no mortality or adverse effects were observed on central nervous system, respiratory, and cardiovascular functions
- 24-h exposure relative to EC90 ([6]; monkey, in vivo, po, 15 mg/kg): 4 fold
- Cmax exposure relative to EC90 ([6]; monkey, in vivo, po, 15 mg/kg): 25 fold
- 24-hour exposure (C24) relative to EC50 [6, 17]: 30 fold
- Cmax exposure relative to EC50 [6, 17]: > 180 ×
- fold below the no-observed-adverse-effect-level (NOAEL) ([6]; single dose 15 mg/kg): 20 fold
- fold more potent than C1-INH at inhibiting plasma kallikrein (plasma kallikrein [7]; contact activation assay): 11 fold and ~10 fold
- EC50 (plasma kallikrein [7]; human plasma): 8.2 nM
- EC90 (plasma kallikrein [7]; human plasma): 61.6 nM
- bioavailability [8]: > 40%
- no-observed-adverse-effect-level (NOAEL) [9]: 300 mg/kg
- genotoxicity or coagulation issues [10]: no genotoxicity or coagulation issues were noted
- recovery of radiolabeled compound (in words) [11]: comprehensive recovery of radiolabeled Compound A
- recovery ([11]; intact and bile duct cannulated rats): 99%
- selectivity for plasma kallikrein versus other closely related serine proteases [12]: > 2000 fold
- bioavailability [13]: > 40%
- AUCinf % Ratio, fed vs. fasted ([14]; 100 mg): 150.3%
- Cmax % Ratio, fed vs. fasted ([14]; 100 mg): 128.5%
- AUCinf, geometric mean (geometric % CV) ([14]; 100 mg, fasted): 2573 (135.1) ng*hr/mL
- Cmax, geometric mean (geometric % CV) ([14]; 100 mg, fasted): 297 (236.1) ng/mL
- AUCinf, geometric mean (geometric % CV) [14, 18]: 3866 (16.1) ng*hr/mL
- Cmax, geometric mean (geometric % CV) [14, 18]: 382 (35.8) ng/mL
- food effect on PK ([14]; 100 mg, high fat meal vs fasted): Minimal food effect
- dose proportionality of AUCinf and Cmax / systemic exposure ([14]; 50-800 mg, fasted): increased proportionally with dose; also recorded: largely proportional to dose
- AUCinf, mean (% CV) ([14]; fasted, 50 mg): 2056 (20.5)^ ng*hr/mL
- Cmax, mean (% CV) ([14]; fasted, 50 mg): 244 (20.1) ng/mL
- Half-Life, mean (% CV) ([14]; fasted, 50 mg): 6.5 (24.1) Hours
- Tmax, mean (% CV) ([14]; fasted, 50 mg): 1.8 (43.3) Hours
- AUCinf, mean (% CV) ([14]; fasted, 100 mg): 3325 (47.3) ng*hr/mL
- Cmax, mean (% CV) ([14]; fasted, 100 mg): 449 (59.3) ng/mL
- Half-Life, mean (% CV) ([14]; fasted, 100 mg): 8.0 (33.0) Hours
- Tmax, mean (% CV) ([14]; fasted, 100 mg): 2.8 (109.7) Hours
- AUCinf, mean (% CV) ([14]; fasted, 150 mg): 8569 (37.9)^ ng*hr/mL
- Cmax, mean (% CV) ([14]; fasted, 150 mg): 848 (33.9) ng/mL
- Half-Life, mean (% CV) ([14]; fasted, 150 mg): 9.7 (15.4) Hours
- Tmax, mean (% CV) ([14]; fasted, 150 mg): 1.9 (19.6) Hours
- Half-Life, mean (% CV) ([14]; fasted, 200 mg): 9.8 (11.3) Hours
- Tmax, mean (% CV) ([14]; fasted, 200 mg): 2.3 (50.2) Hours
- AUCinf, mean (% CV) ([14]; fasted, 200 mg (5 subjects)): 8382 (30.2)^ ng*hr/mL
- Cmax, mean (% CV) ([14]; fasted, 200 mg (5 subjects)): 693 (43.0) ng/mL
- AUCinf, mean (% CV) ([14]; fasted, 400 mg): 14010 (21.1) ng*hr/mL
- Cmax, mean (% CV) ([14]; fasted, 400 mg): 1351 (18.8) ng/mL
- Half-Life, mean (% CV) ([14]; fasted, 400 mg): 9.5 (9.9) Hours
- Tmax, mean (% CV) ([14]; fasted, 400 mg): 2.4 (57.7) Hours
- AUCinf, mean (% CV) ([14]; fasted, 800 mg): 30180 (35.7) ng*hr/mL
- Cmax, mean (% CV) ([14]; fasted, 800 mg): 3015 (32.0) ng/mL
- Half-Life, mean (% CV) ([14]; fasted, 800 mg): 9.0 (9.9) Hours
- Tmax, mean (% CV) ([14]; fasted, 800 mg): 2.9 (33.3) Hours
- Mean C24 ([14]; fasted, dose 50): 19.3
- Mean Cmax ([14]; fasted, dose 50): 244
- Mean AUCinf ([14]; fasted, dose 50): 2056
- Mean C24 ([14]; fasted, dose 100): 27.7
- Mean Cmax ([14]; fasted, dose 100): 449
- Mean AUCinf ([14]; fasted, dose 100): 3325
- Mean C24 ([14]; fasted, dose 150): 83.6
- Mean Cmax ([14]; fasted, dose 150): 848
- Mean AUCinf ([14]; fasted, dose 150): 8569
- Mean C24 ([14]; fasted, dose 200): 69.2
- Mean Cmax ([14]; fasted, dose 200): 693
- Mean AUCinf ([14]; fasted, dose 200): 8382
- Mean C24 ([14]; fasted, dose 400): 124.0
- Mean Cmax ([14]; fasted, dose 400): 1351
- Mean AUCinf ([14]; fasted, dose 400): 14010
- Mean C24 ([14]; fasted, dose 800): 274.0
- Mean Cmax ([14]; fasted, dose 800): 3015
- Mean AUCinf ([14]; fasted, dose 800): 30180
- Cmax exposure relative to EC50 ([15]; NOAEL dose, day 28): > 4500 ×
- 24-h exposure relative to EC90 ([15]; monkey, in vivo, 100 mg/kg/day): 20 fold
- Cmax exposure relative to EC90 ([15]; monkey, in vivo, 100 mg/kg/day): > 600 fold
- findings at high-dose level ([15]; monkey, in vivo, 300 mg/kg/day): adverse findings in monkeys reversed upon dose reduction to 150 mg/kg/day dose
- NOAEL ([15]; monkeys, 28-day repeat dose): 100 mg/kg/day
- bioavailability [16]: > 40%

Compound: C1-INH: C1 inhibitor (C1-esterase inhibitor, serpin), which inhibits the activity of plasma kallikrein; comparator [Compound C1-INH]
- IC50 (plasma kallikrein [2]): 25.4 nM
- IC90 (plasma kallikrein [2]): 157 nM
- EC50 (plasma kallikrein [7]; human plasma): 92.4 nM
